Results as given in publication PMC11391452, “Fruits from Rosa roxburghii: A Valuable Bioresource of Potent Radical Scavengers and Novel Ursane-Type Triterpenoids” (ACS Omega, 2024).
“Also recorded” adds a separate entry of the source.

How the values were obtained:
COX-1 = biological target: T1, COX-1 (Ovis aries, UniProt P05979); experiment: COX (ovine) colorimetric inhibitor screening assay, COX-1; format: biochemical; details: for COX-1 inhibition, in words: in comparison to acetaminophen, Figure 3 A
T1 construct: purchased Cayman 760110
T1 sequence (P05979 25-600): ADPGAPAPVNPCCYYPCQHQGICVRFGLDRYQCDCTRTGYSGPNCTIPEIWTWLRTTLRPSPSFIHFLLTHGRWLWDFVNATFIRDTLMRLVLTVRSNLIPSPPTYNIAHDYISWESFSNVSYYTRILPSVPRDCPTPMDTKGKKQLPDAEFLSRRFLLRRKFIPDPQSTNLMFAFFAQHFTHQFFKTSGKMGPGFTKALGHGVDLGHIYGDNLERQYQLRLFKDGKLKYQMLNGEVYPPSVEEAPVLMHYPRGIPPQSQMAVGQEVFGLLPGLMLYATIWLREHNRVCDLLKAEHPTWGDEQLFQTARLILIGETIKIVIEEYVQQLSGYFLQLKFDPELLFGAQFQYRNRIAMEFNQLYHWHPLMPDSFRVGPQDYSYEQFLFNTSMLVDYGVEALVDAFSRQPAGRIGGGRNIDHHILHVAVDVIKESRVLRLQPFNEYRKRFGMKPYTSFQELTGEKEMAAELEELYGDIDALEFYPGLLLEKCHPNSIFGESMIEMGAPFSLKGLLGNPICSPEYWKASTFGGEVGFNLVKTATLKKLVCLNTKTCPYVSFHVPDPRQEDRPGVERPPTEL
Experimental: (§1) Each compound was assayed in triplicate, and GraphPad Prism 8 software was used to calculate EC50 values. All statistical analyses were performed by Microsoft Excel.

COX-2 = biological target: T2, COX-2 (Ovis aries, UniProt P79208); experiment: COX (ovine) colorimetric inhibitor screening assay, COX-2; format: biochemical; details: for COX-2 inhibition, in words: in comparison to acetaminophen, Figure 3 A
T2 construct: purchased Cayman 760110
T2 sequence (P79208 17-603): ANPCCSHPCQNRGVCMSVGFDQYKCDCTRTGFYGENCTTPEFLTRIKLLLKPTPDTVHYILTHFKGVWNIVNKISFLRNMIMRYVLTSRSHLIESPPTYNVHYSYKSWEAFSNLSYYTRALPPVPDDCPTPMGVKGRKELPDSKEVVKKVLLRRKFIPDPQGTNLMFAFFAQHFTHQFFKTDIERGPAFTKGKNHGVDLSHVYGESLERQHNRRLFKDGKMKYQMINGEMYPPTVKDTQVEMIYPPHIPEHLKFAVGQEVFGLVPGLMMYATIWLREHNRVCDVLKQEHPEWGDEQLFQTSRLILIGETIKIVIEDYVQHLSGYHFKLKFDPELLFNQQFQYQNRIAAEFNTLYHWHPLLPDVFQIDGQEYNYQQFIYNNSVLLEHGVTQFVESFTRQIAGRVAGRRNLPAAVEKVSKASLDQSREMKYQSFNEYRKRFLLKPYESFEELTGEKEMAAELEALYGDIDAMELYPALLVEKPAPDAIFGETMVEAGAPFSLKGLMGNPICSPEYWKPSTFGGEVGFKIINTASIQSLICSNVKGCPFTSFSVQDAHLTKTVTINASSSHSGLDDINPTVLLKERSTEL
Experimental: as §1

[1] = DPPH radical scavenging capacity assay; details: for EC50 / DPPH EC50: pure compounds, 30 min, 517 nm, ascorbic acid positive control; for free radical scavenging effect in comparison to ascorbic acid, in words: DPPH assay
Experimental: The DPPH radical scavenging capacity assay was performed according to a previously described method with slight modifications.[34] Briefly, the tested compounds or extracts were dissolved in a small volume of DMSO to generate a 10 mM or 100 mg mL^–1 (for the extracts) stock solution and diluted to generate the final testing solution with methanol. The 0.2 mM fresh DPPH methanol solution was prepared daily. The 90 μL of methanolic solution of DPPH was added to 60 μL of tested compound solution with different concentrations (or 60 μL of methanol as blank) in 96-well plates and allowed to react for 30 min at ambient temperature in the dark. The absorbance (OD) was measured at 517 nm on an Infinite M200 Pro (Tecan, Austria) microplate reader. The level of the DPPH• scavenging activity was calculated as [drawing 1] The EC50 values were calculated by using GraphPad Prism 8 software 4.6.

HaCaT cells = experiment: Anti-aging bioassay (UV-B irradiation model and viability assay, MTS); format: cell-based, Human; details: samples 25 μM, 24 h
Experimental: Human HaCaT cells were cultured routinely in DMEM (high glucose) supplemented with 10% fetal bovine serum and 1% penicillin–streptomycin solution in a humidified incubator at 37 °C and 5% CO2.[19] All cells were cultured in culture dishes, and the medium was changed every day. The cells were cultured when the cell density reached 80%. Briefly, the HaCaT cells were cultured for 24 h after plating at a density of 4 × 10^4 cells/100 μL in 96-well plates. Subsequently, cells were irradiated according to the grouping using a 20 W UV–B lamp (SiTing, Shanghai, CN) at a distance of 10 cm for 5 s. The irradiation dose was calculated to be approximately 0.80 J cm^–2. Cells were divided into the following groups: control, UV–B alone, and UV–B + samples (25 μM). After UV–B irradiation, HaCaT cells continued to culture for 24 h with the medium containing compounds to be measured. The effects of those compounds on cell protection were determined by the MTS assay (BestBio, Shanghai, CN). After incubation, cells in each well were treated with 20 μL MTS solution for 1 h. The absorbance at 490 nm was measured directly with a microplate reader (FlexStation3, Molecular Devices, CA, US). Cell viability was expressed as the ratio percentage of MTS after deducting background value, assuming that the absorbance of control cells with deducting background absorbance was 100%.

HepG2 cells = experiment: Hepatoprotective assay (APAP-exposed cells, cell viability); format: cell-based; details: tested concentration of 100 μM (method 50 μM), 20 mM APAP, Figure 3 B1
Experimental: HepG2 cells were seeded into 96-well tissue culture dishes at 5 × 10^3 cells/well and cultured overnight in DMEM medium supplemented with 10% FBS and 1% penicillin/streptomycin antibiotics at 37 °C in a humidified 5% CO2 incubator. The cells were then incubated with test compounds at 50 μM or extracts at 200 mg mL^–1 for 4 h before acetaminophen (APAP) exposure. After this pretreatment, the experimental group was treated with 20 mM APAP together with the compounds; the APAP-only group was treated with 20 mM neomycin and an equivalent volume of DMSO; and the control group was treated with an equivalent volume of DMSO without APAP or test compounds. After another 24 h of culture, the cell viability was then measured using the CellTiter 96 Aqueous One Solution Cell Proliferation Assay kit (Promega, USA).[12]

[2] = pure compounds, acetaminophen positive control

Compound	EC50 (COX-1; [2])	EC50 (COX-2; [2])	DPPH EC50 [1]	EC50 [1]	anti-aging effect (cell viability after UV-B irradiation), in words (HaCaT cells; Figure 3 B2)	anti-aging effect (cell viability after UV-B irradiation), in words (HaCaT cells; Figure 3 B2, listed as rosaroxine C)	hepatoprotective effect (cell viability of HepG2 cells), in words (HepG2 cells)	COX-1 inhibition, in words (COX-1)	COX-2 inhibition, in words (COX-2)	anti-aging effect (cell viability after UV-B irradiation), in words (HaCaT cells; Figure 3 B2, listed as 2-oxo-pomolic acid)	free radical scavenging effect in comparison to ascorbic acid, in words [1]	COX-1 EC50 (COX-1; [2])	COX-2 EC50 (COX-2; [2])
CC(=O)Nc1ccc(O)cc1 [Acetaminphen, acetaminophen, reference compound]	> 100 µM	45 µM	–	–	–	–	–	–	–	–	–	–	–
O=C1O[C@H]([C@@H](O)CO)C(O)=C1O [Ascorbic acid, ascorbic acid, reference compound]	–	–	–	31.3 µM	–	–	–	–	–	–	–	–	–
O=c1c(O)c(-c2ccc(O)c(O)c2)oc2cc(O)cc(O)c12 [Compound 16, quercetin]	33.1 µM	18.8 µM	–	13.1 µM	–	–	no protective effects	high inhibition rates	high inhibition rates	–	powerful free radical scavenging effects	–	–
O=C(O)c1cc(O)c(O)c(O)c1 [Compound 21, gallic acid]	40 µM	26.3 µM	–	10 µM	–	–	–	high inhibition rates	high inhibition rates	–	powerful free radical scavenging effects	–	–
O=C(O)c1ccc(O)c(O)c1 [Compound 22, protocatechuic acid]	–	–	–	15.2 µM	most active compounds	–	no protective effects	–	–	–	powerful free radical scavenging effects	no activity	no activity

Now from value to compound, other results behind:

EC50 (COX-1; [2])	EC50 (COX-2; [2])	DPPH EC50 [1]	Compound	EC50 [1]	anti-aging effect (cell viability after UV-B irradiation), in words (HaCaT cells; Figure 3 B2)	anti-aging effect (cell viability after UV-B irradiation), in words (HaCaT cells; Figure 3 B2, listed as rosaroxine C)	hepatoprotective effect (cell viability of HepG2 cells), in words (HepG2 cells)	COX-1 inhibition, in words (COX-1)	COX-2 inhibition, in words (COX-2)	anti-aging effect (cell viability after UV-B irradiation), in words (HaCaT cells; Figure 3 B2, listed as 2-oxo-pomolic acid)	free radical scavenging effect in comparison to ascorbic acid, in words [1]	COX-1 EC50 (COX-1; [2])	COX-2 EC50 (COX-2; [2])
40.3 µM	37.4 µM	no activity	CC1(C)C(O)C(=O)CC2(C)C1CCC1(C)C2CC=C2C3C(C(=O)O)(CCC(C(=O)O)C3(C)O)CCC21C (centres unmarked) [Compound 3, rosaroxine C]	–	most active compounds	performed well	no protective effects	significant activities; also recorded: high inhibition rates	significant activities; also recorded: high inhibition rates	–	–	–	–
28.2 µM	16.6 µM	no activity	C[C@@H]1CC[C@]2(C(=O)O)CC[C@]3(C)C(=CC[C@@H]4[C@@]5(C)CC(=O)[C@H](O)C(C)(C)[C@@H]5CC[C@]43C)[C@@H]2[C@]1(C)O [Compound 5, 2-oxo-pomolic acid]	–	most active compounds	–	no protective effects	significant activities; also recorded: high inhibition rates	significant activities; also recorded: high inhibition rates	performed well	–	–	–
29 µM	53.3 µM	–	Oc1cc(O)c2c(c1)OC(c1ccc(O)c(O)c1)C(O)C2 (centres unmarked) [Compound 15, catechin]	13.4 µM	–	–	no protective effects	high inhibition rates	–	–	powerful free radical scavenging effects	–	–
